Here are results for 21 compounds from patent US8143243B2, “Compounds for the treatment of hepatitis C” (Bristol-Myers Squibb Company, priority 2007, dated 2012).

T1 sequence (Q9WMX2 2420-2992): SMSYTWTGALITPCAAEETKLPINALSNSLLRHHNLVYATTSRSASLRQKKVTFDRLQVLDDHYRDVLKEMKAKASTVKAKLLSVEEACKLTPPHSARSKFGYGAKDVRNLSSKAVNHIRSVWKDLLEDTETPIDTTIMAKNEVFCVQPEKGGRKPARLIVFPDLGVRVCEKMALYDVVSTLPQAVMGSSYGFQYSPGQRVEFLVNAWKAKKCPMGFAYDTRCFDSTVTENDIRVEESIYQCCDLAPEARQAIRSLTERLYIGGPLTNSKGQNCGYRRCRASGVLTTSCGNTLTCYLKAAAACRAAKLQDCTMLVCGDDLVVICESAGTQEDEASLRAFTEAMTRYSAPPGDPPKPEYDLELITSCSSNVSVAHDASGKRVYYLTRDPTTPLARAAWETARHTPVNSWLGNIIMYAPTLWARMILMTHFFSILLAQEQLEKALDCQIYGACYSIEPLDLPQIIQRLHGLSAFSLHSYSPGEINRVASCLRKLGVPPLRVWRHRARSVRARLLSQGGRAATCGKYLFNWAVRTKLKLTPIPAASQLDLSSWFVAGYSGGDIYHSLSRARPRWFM

The experiment concerns the target T1, HCV NS5B (Hepatitis C virus genotype 1b, UniProt Q9WMX2).
T1 construct: The protein was expressed with an 18 amino acid C-terminal truncation to enhance the solubility; made in house; host or cells: E. coli BL21 (DE3)
Nature of the experiment: HCV NS5B RdRp enzyme assay (standard / modified). The note with it: HCV RdRp genotype 1b enzyme; read-out: IC50. Format: biochemical. How it is done:
HCV NS5B RdRp cloning, expression, and purification. The cDNA encoding the NS5B protein of HCV, genotype 1b, was cloned into the pET21a expression vector. The protein was expressed with an 18 amino acid C-terminal truncation to enhance the solubility. The E. coli competent cell line BL21 (DE3) was used for expression of the protein. Cultures were grown at 37° C. for ˜4 hours until the cultures reached an optical density of 2.0 at 600 nm. The cultures were cooled to 20° C. and induced with 1 mM IPTG. Fresh ampicillin was added to a final concentration of 50 μg/ml and the cells were grown overnight at 20° C.
Cell pellets (3 L) were lysed for purification to yield 15-24 mgs of purified NS5B. The lysis buffer consisted of 20 mM Tris-HCl, pH 7.4, 500 mM NaCl, 0.5% triton X-100, 1 mM DTT, 1 mM EDTA, 20% glycerol, 0.5 mg/ml lysozyme, 10 mM MgCl2, 15 ug/ml deoxyribonuclease I, and Complete TM protease inhibitor tablets (Roche). After addition of the lysis buffer, frozen cell pellets were resuspended using a tissue homogenizer. To reduce the viscosity of the sample, aliquots of the lysate were sonicated on ice using a microtip attached to a Branson sonicator. The sonicated lysate was centrifuged at 100,000×g for 1 hr at 4° C. and filtered through a 0.2 μm filter unit (Corning).
The protein was purified using three sequential chromatography steps: Heparin sepharose CL-6B, polyU sepharose 4B, and Hitrap SP sepharose (Pharmacia). The chromatography buffers were identical to the lysis buffer but contained no lysozyme, deoxyribonuclease I, MgCl2 or protease inhibitor and the NaCl concentration of the buffer was adjusted according to the requirements for charging the protein onto the column. Each column was eluted with a NaCl gradient which varied in length from 5-50 column volumes depending on the column type. After the final chromatography step, the resulting purity of the enzyme is >90% based on SDS-PAGE analysis. The enzyme was aliquoted and stored at −80° C.
Standard HCV NS5B RdRp enzyme assay. HCV RdRp genotype 1b assays were run in a final volume of 60 μl in 96 well plates (Costar 3912). The assay buffer is composed of 20 mM Hepes, pH 7.5, 2.5 mM KCl, 2.5 mM MgCl2, 1 mM DTT, 1.6 U RNAse inhibitor (Promega N2515), 0.1 mg/ml BSA (Promega R3961), and 2% glycerol. All compounds were serially diluted (3-fold) in DMSO and diluted further in water such that the final concentration of DMSO in the assay was 2%. HCV RdRp genotype 1b enzyme was used at a final concentration of 28 nM. A polyA template was used at 6 nM, and a biotinylated oligo-dT12 primer was used at 180 nM final concentration. Template was obtained commercially (Amersham 27-4110). Biotinylated primer was prepared by Sigma Genosys. 3H-UTP was used at 0.6 μCi (0.29 μM total UTP). Reactions were initiated by the addition of enzyme, incubated at 30° C. for 60 min, and stopped by adding 25 μl of 50 mM EDTA containing SPA beads (4 μg/μl, Amersham RPNQ 0007). Plates were read on a Packard Top Count NXT after >1 hr incubation at room temperature.
Modified HCV NS5B RdRp enzyme assay. A modified enzyme assay was performed essentially as described for the standard enzyme assay except for the following: The biotinylated oligo dT12 primer was precaptured on streptavidin-coated SPA beads by mixing primer and beads in assay buffer and incubating at room temperature for one hour. Unbound primer was removed after centrifugation. The primer-bound beads were resuspended in 20 mM Hepes buffer, pH 7.5 and used in the assay at final concentrations of 20 nM primer and 0.67 μg/μl beads. Order of addition in the assay: enzyme (14 nM) was added to diluted compound followed by the addition of a mixture of template (0.2 nM), 3H-UTP (0.6 μCi, 0.29 μM), and primer-bound beads, to initiate the reaction; concentrations given are final. Reactions were allowed to proceed for 4 hours at 30° C.
IC50 values for compounds were determined using seven different [I]. […]
The IC50 is the concentration at which inhibition is half-maximal. Regarding `COc1ccc2c(c1)C=C(c1c(C(=O)N3C[C@@H](C)N(C)[C@@H](C)C3)cnn1C)Cn1c-2c(C2CCCCC2)c2ccc(C(=O)NS(=O)(=O)C3CCC3)cc21`, the IC50 was in the range of 1 to 500 nM.
Regarding `COc1ccc2c(c1)C=C(c1c(C(=O)N(Cc3ccccc3OC)C(C)C)cnn1C)Cn1c-2c(C2CCCCC2)c2ccc(C(=O)NS(=O)(=O)C(C)C)cc21`, the IC50 was 1 to 500 nM.
For the compound `CCn1nc(C)c(C(=O)N2C[C@@H](C)N(C)[C@@H](C)C2)c1C1=Cc2cc(OC)ccc2-c2c(C3CCCCC3)c3ccc(C(=O)NS(=O)(=O)C(C)C)cc3n2C1`, the IC50 was in the range of 1 to 500 nM.
In the case of `CCOC(=O)c1cnn(C)c1C1=Cc2cc(OC)ccc2-c2c(C3CCCCC3)c3ccc(C(=O)NS(=O)(=O)C(C)CC)cc3n2C1` (stereo not drawn), the IC50 lay within 1 to 500 nM.
Consider `CCN1CC2CC1CN2C(=O)c1cnn(C)c1C1=Cc2cc(OC)ccc2-c2c(C3CCCCC3)c3ccc(C(=O)NS(=O)(=O)CC(C)C)cc3n2C1` (stereo not drawn), for which the IC50 is 1 to 500 nM.
In the case of `COC(=O)c1c(C)nn(C)c1C1=Cc2cc(OC)ccc2-c2c(C3CCCCC3)c3ccc(C(=O)NS(=O)(=O)CC(C)C)cc3n2C1`, the IC50 was in the range of 1 to 500 nM.
In the case of `COc1ccc2c(c1)C=C(c1nn(C(C)C)c(C)c1C(=O)N1C[C@@H](C)O[C@@H](C)C1)Cn1c-2c(C2CCCCC2)c2ccc(C(=O)NS(=O)(=O)C(C)C)cc21` [drawing 617], the IC50 is 1 to 500 nM.
As for `COC(=O)c1c(C)nn(C)c1C1=Cc2cc(OC)ccc2-c2c(C3CCCCC3)c3ccc(C(=O)NS(=O)(=O)N(C)C)cc3n2C1`, the IC50 fell in the range of 1 to 500 nM.
Under `COc1ccc2c(c1)C=C(c1c(C(=O)N3C[C@@H](C)N(C)[C@@H](C)C3)cnn1C)Cn1c-2c(C2CCCCC2)c2ccc(C(=O)NS(=O)(=O)CC(C)C)cc21` stands 1 to 500 nM.
Take `CCOC(=O)c1cnn(C)c1C1=Cc2cc(OC)ccc2-c2c(C3CCCCC3)c3ccc(C(=O)NS(=O)(=O)CC(C)C)cc3n2C1`: the IC50 lay in the range of 1 to 500 nM.
Consider `CCn1ncc(C(=O)N2CC3CCC(C2)O3)c1C1=Cc2cc(OC)ccc2-c2c(C3CCCCC3)c3ccc(C(=O)NS(=O)(=O)C(C)C)cc3n2C1`, for which the 50% inhibitory concentration (IC50) was 1 to 500 nM.
The figure for `COc1ccc2c(c1)C=C(c1c(C(=O)N3CCCC(N(C)C)C3)cnn1C)Cn1c-2c(C2CCCCC2)c2ccc(C(=O)NS(=O)(=O)C3CCCC3)cc21` (stereo not drawn) is 1 to 500 nM.
Under `COc1ccc2c(c1)C=C(c1c(C(=O)N3C[C@@H](C)O[C@@H](C)C3)cnn1C)Cn1c-2c(C2CCCCC2)c2ccc(C(=O)NS(=O)(=O)C3CCCC3)cc21` stands 1 to 500 nM; under `CCn1nc(C)c(C(=O)N2CCO[C@H](COC)C2)c1C1=Cc2cc(OC)ccc2-c2c(C3CCCCC3)c3ccc(C(=O)NS(=O)(=O)C(C)C)cc3n2C1`, 1 to 500 nM; under `CCN1C[C@@H]2C[C@H]1CN2C(=O)c1cnn(C)c1C1=Cc2cc(OC)ccc2-c2c(C3CCCCC3)c3ccc(C(=O)NS(=O)(=O)C4CCCC4)cc3n2C1`, 1 to 500 nM.
Under `CCC(C)S(=O)(=O)NC(=O)c1ccc2c(C3CCCCC3)c3n(c2c1)CC(c1c(C(=O)N2C[C@@H]4C[C@H]2CN4CC)cnn1C)=Cc1cc(OC)ccc1-3` (stereo partly drawn) stands 1 to 500 nM; under `COc1ccc2c(c1)C=C(c1c(C(=O)N3CCN4CCCC4C3)cnn1C)Cn1c-2c(C2CCCCC2)c2ccc(C(=O)NS(=O)(=O)C3CCCC3)cc21` (stereo not drawn), 1 to 500 nM.
On to `COc1ccc2c(c1)C=C(c1c(C(=O)N3CCCC(N(C)C)C3)cnn1C)Cn1c-2c(C2CCCCC2)c2ccc(C(=O)NS(=O)(=O)CC(C)C)cc21` (stereo not drawn), for which the IC50 is 1 to 500 nM.
In the case of `COc1ccc2c(c1)C=C(c1c(C(=O)N3C[C@@H](C)N(C)[C@@H](C)C3)cnn1C)Cn1c-2c(C2CCCCC2)c2ccc(C(=O)NS(=O)(=O)C3CCCC3)cc21`, the IC50 is 1 to 500 nM.
The figure for `COc1ccc2c(c1)C=C(c1nn(C(C)C)c(C)c1C(=O)N1C[C@@H](C)O[C@@H](C)C1)Cn1c-2c(C2CCCCC2)c2ccc(C(=O)NS(=O)(=O)C(C)C)cc21` [drawing 622] is 1 to 500 nM.
For the compound `COc1ccc2c(c1)C=C(c1c(C(=O)N3CCN4CCCC4C3)cnn1C)Cn1c-2c(C2CCCCC2)c2ccc(C(=O)NS(=O)(=O)CC(C)C)cc21` (stereo not drawn), the half-maximal inhibitory concentration (IC50) was 1 to 500 nM.
